Test results: publication PMC4062819, “N-Demethylation and N-oxidation of imipramine in rat thoracic aortic endothelial cells” (In Vitro Cellular & Developmental Biology. Animal, 2014)

What was measured:
[1] = test system: T1, FMO (flavin-containing monooxygenase); assay: inhibition of imipramine N-oxidation in cell homogenate, HPLC-UV; type: biochemical, Rattus norvegicus; conditions: competitive with imipramine, methimazole 1 μmol/L, NADPH-regenerating system, 37 °C, FMO isoform unresolved, read-out: apparent K i
T1 construct: gene Fmo1; native, homogenate of cultured thoracic aortic endothelial cells; FMO isoform not resolved

[2] = test system: T1, FMO (flavin-containing monooxygenase); assay: imipramine N-oxide formation in cell homogenate, HPLC-UV; type: biochemical, Rattus norvegicus; conditions: NADPH-regenerating system, pH 7.4, 37 °C, apparent Km, FMO isoform unresolved
Source text: imipramine N-oxide formation in cell homogenate, HPLC-UV on FMO (flavin-containing monooxygenase)

CYP2C11 and CYP3A2 = conditions: read-out: K m (μmol/L); NADPH-regenerating system; pH 7.4; 37 °C; apparent Km; homogenate, mixed CYPs assigned by anti-CYP antibodies
Source text: desipramine (N-demethylate) formation in cell homogenate, HPLC-UV on CYP2C11 and CYP3A2

Structure (SMILES)	Ki [1] [nM]	Km [2] [µM]	Km (CYP2C11 and CYP3A2) [µmol/L]
Cn1cc[nH]c1=S [methimazole]	800		
CN(C)CCCN1c2ccccc2CCc2ccccc21 [imipramine]		20 ± 4.5	39.9 ± 5.3
